# Laboratory results from the NIST ThermoML archive (doi:10.1016/j.jct.2016.07.015).
# “And” between values parts separate entries of the source, which are not always exact repeats. Equal values may be shown once. Numbers after ± are expanded uncertainties.
# Conditions: Crystal, Calculated from knudsen effusion weight loss
smiles,measurement,setting,value
COc1cc(CO)ccc1O [4-hydroxy-3-methoxybenzyl alcohol],vapor or sublimation pressure,332.19 K,0.000113 ± 6e-05 kPa and 0.0001121 ± 6e-05 kPa and 0.0001096 ± 6e-05 kPa
same,vapor or sublimation pressure,334.36 K,0.0001475 ± 6e-05 kPa and 0.0001466 ± 6e-05 kPa and 0.0001413 ± 6e-05 kPa
same,vapor or sublimation pressure,336.15 K,0.0001823 ± 6e-05 kPa and 0.0001755 ± 6e-05 kPa and 0.0001867 ± 6e-05 kPa
same,vapor or sublimation pressure,338.21 K,0.0002375 ± 6.1e-05 kPa and 0.0002339 ± 6.1e-05 kPa and 0.0002403 ± 6.1e-05 kPa
same,vapor or sublimation pressure,340.27 K,0.0003072 ± 6.1e-05 kPa and 0.0002982 ± 6.1e-05 kPa and 0.0003122 ± 6.1e-05 kPa
same,vapor or sublimation pressure,342.14 K,0.0003845 ± 6.2e-05 kPa and 0.0003697 ± 6.1e-05 kPa and 0.0003916 ± 6.2e-05 kPa
same,vapor or sublimation pressure,344.21 K,0.0005061 ± 6.3e-05 kPa and 0.0004935 ± 6.3e-05 kPa and 0.000506 ± 6.3e-05 kPa
same,vapor or sublimation pressure,346.27 K,0.0006422 ± 6.4e-05 kPa and 0.0006234 ± 6.4e-05 kPa and 0.0006502 ± 6.4e-05 kPa
same,vapor or sublimation pressure,348.13 K,0.0008066 ± 6.7e-05 kPa and 0.0007737 ± 6.6e-05 kPa and 0.0008145 ± 6.7e-05 kPa
same,vapor or sublimation pressure,350.15 K,0.001038 ± 9.5e-05 kPa and 0.001007 ± 9.3e-05 kPa and 0.001064 ± 9.7e-05 kPa
